Assay results as given in ChEMBL document CHEMBL1150192, “Tetracyclic Triterpenoids of the Fruit Coats of Azadirachta indica” (J Nat Prod, 1991).
Activity calls are given as the source filed them.

What was measured:
Format in all cases: functional, organism-based
[1] = test system: Klebsiella pneumoniae; test: Antimicrobial activity against Klebsiella pneumoniae
[2] = test system: Staphylococcus epidermidis; test: Antimicrobial activity against Staphylococcus epidermidis
[3] = test system: Streptococcus pyogenes; test: Antimicrobial activity against Streptococcus pyogenes
[4] = test system: Salmonella enterica subsp. enterica serovar Typhi str. CT18; test: Antimicrobial activity against Salmonella typhi
[5] = test system: Bacillus subtilis; test: Antimicrobial activity against Bacillus subtilis
[6] = test system: Bacillus pumilus; test: Antimicrobial activity against Bacillus pumilus
[7] = test system: Shigella dysenteriae; test: Antimicrobial activity against Shigella dysenteriae
[8] = test system: Proteus vulgaris; test: Antimicrobial activity against Proteus vulgaris
[9] = test system: Staphylococcus; test: Antimicrobial activity against Staphylococcus citreus
[10] = test system: Shigella sonnei; test: Antimicrobial activity against Shigella sonnei
[11] = test system: Salmonella paratyphi; test: Antimicrobial activity against Salmonella paratyphi A; conditions: Salmonella enterica subsp. enterica serovar Paratyphi A
[12] = test system: Salmonella; test: Antimicrobial activity against Salmonella schottmuelleri
[13] = test system: Staphylococcus aureus; test: Antimicrobial activity against Staphylococcus aureus
[14] = test system: Serratia marcescens; test: Antimicrobial activity against Serratia marcescens
[15] = test system: Escherichia coli; test: Antimicrobial activity against Escherichia coli

Measured: Activity

CC(=O)O[C@@H]1C[C@H]2C(C)(C)C(=O)C=C[C@]2(C)[C@H]2CC[C@]3(C)C(=CC[C@H]3[C@@H](CO)C[C@H](O)C(=O)C(C)(C)O)[C@@]21C
inactive: all assays above
